The results in this text go back to patent publication US9834541B2, “2-aminopyridine compounds” (Merck Patent GmbH, priority 2012, dated 2017).

SMILES strings stand for the structures.

Data set [1] in a line: CLint (intrinsic clearance) assay, liver microsomal incubation. Type of data set: in vitro ADME, human. The settings on record: liver microsomes, pH 7.4; human hepatic microsomes, 0.5 mg/mL protein, class symbols. Here is the method:
Also shown is the human hepatic microsomal intrinsic clearance (CLint), whereby the following classification is used:
2. CLint (Intrinsic Clearance) Assay
A Tecan Genesis workstation (RWS ASY 150/8) was used to perform the microsomal incubations. Analysis was carried out using a Waters ACQUITY UPLC system coupled to an ABSciex API3000 mass spectrometer. Data analysis was performed using Assay Explorer (Symyx).
Column: Acquity UPLC BEH C18, 2.1×50 mm, 1.7 um (Waters)
Mobile phases: • A=0.1% formic acid in water • B=acetonitrile
Column temperature: 50° C.
0.1 M potassium phosphate buffer pH 7.4 containing 1 mM MgCl2
15 mM NADPH in phosphate buffer
5.0 mg protein/mL liver microsomes in phosphate buffer
Each experiment consists of 12 test and 2 reference compounds. The reference compounds are incubated as a cocktail.
Dilution of test compounds was done in 2 steps from a 10 mM DMSO stock solution. First 4 μL stock solution was added to 196 μL of 20% DMSO in potassium phosphate buffer pH 7.4. In a second step 10 μL of the first dilution were added to 1890 μL potassium phosphate buffer and 100 μL internal standard solution to a final concentration of […].
100 μL of the final compound dilution were aliquoted into a 96 deep well plate. 12.5 μL liver microsomes were added to each well (0.5 mg/mL final protein concentration) and the samples preincubated for 5 min at 37° C. and 800 rpm agitation.
After the preincubation, 250 μL cold acetonitrile were added to the 0 min samples to prevent a reaction. Following this, 12.5 μL NADPH solution were added to all wells to start the incubation, with the exception of the 0 min and 30 min controls without cofactor, where the NADPH was substituted for phosphate buffer.
The incubations were stopped after 5, 10, 20 and 30 min by adding 250 μL cold acetonitrile to the individual wells.
The quenched samples were then centrifuged at 4000 g for 1 h at 4° C. 100 μL of the supernatant were transferred into 96 well plates for analysis.
The metabolic stability of each compound was determined by measurement of the change in LC-MS/MS peak area over time. Assay Explorer software was used to automatically calculate the slope k of the decline. The intrinsic clearance (CLint) of each compound was then calculated according to the formula: CLint(μL/min/mg protein)=k1000/protein concentration.

For another data set, the system named is Wnt pathway. Put plainly: Cellular assay for Wnt pathway activity, LS174T-shl-fLuc clone 5 (LS174T-L5) luciferase reporter assay. It counts as cell-based. Particulars: Homo sapiens; LS174T TCF luciferase reporter cells, 24 hours incubation. From the text: 1. Cellular Assay for Wnt Pathway Activity LS174T-shl-fLuc Clone 5 (LS174T-L5) Reporter Assay Principle:
This assay is based on an in-vitro luciferase activity readout. The human colon cancer cell line, LS174T was transduced with a lentivirus encoding a short half-life luciferase (with a destabilised PEST sequence construct; construct F1756): 16×TCF/LEF transcription sites—short half life firefly luciferase on a basal pTA promoter—puromycin resistance gene on an EF-1-α promoter). This construct was made using the lentiviral base vector: pCDF1-MCS2-EF1-Puro from System Biosciences (cat. # CD110B-1). The luciferase has a T1/2 of about 60 minutes.
Stable luciferase-expressing clones were selected, using 1 μg/mL puromycin selection and the clones were bulked up.
Compounds that inhibit the Wnt pathway are predicted to inhibit the induction of luciferase transcription by TCF; this will result in reduced luciferase protein production and luciferase signal readout.
Compounds were tested for their Wnt pathway inhibitory activities using the described firefly luciferase reporter cell based assay. An LS174T luciferase reporter cell line was used which contained a T-Cell Factor (TCF) dependent gene promoter firefly luciferase construct.
Compounds, in concentrations from 30 μM to 1 nM, were incubated for 24 hours on the cells. Luciferase activities were determined using the Steady Glo Luciferase Assay System (Promega) and the TOPCOUNT microplate reader (Perkin Elmer). For analysis, the obtained data were normalized against the untreated vehicle control and fitted for determination of the IC50 values using the Excel Fit application of the Excel Software (Microsoft).
In general terms: A reporter such as luciferase makes a cellular process visible.

The term microsomal CLint denotes the rate of metabolic loss divided by the concentration. As usually defined, the IC50 is the concentration at which inhibition is half-maximal.

Regarding `Nc1ncc(-c2ccc3c(N)n[nH]c3c2)c(N2CCC3(CCNC3=O)CC2)c1Cl` [Compound 3, 8-[2-Amino-5-(3-amino-1H-indazol-6-yl)-3-chloro-pyridin-4-yl]-2,8-diaza-spiro[4.5] decan-1-one], the microsomal CLint at 0.8 μM in data set [1] is below 10 µL/min/mg. Also, half-maximal inhibition with Wnt pathway (IC50) was put at 0.12 µM.

For `Nc1ncc(-c2ccc3cc[nH]c3c2)c(N2CCC3(CC2)CNC(=O)O3)c1Cl` [Compound 29, 8-[2-Amino-3-chloro-5-(1H-indol-6-yl)-pyridin-4-yl]-1-oxa-3,8-diaza-spiro[4.5] decan-2-one], the microsomal CLint at 0.8 μM in data set [1] was in the range of 100 to 150 µL/min/mg. For the same molecule, the IC50 in the data set with Wnt pathway was determined as 0.03 µM.

In the case of `CN1c2ccc(-c3cnc(N)c(Cl)c3N3CCC4(CCNC4=O)CC3)cc2CS1(=O)=O` [Compound 26, 8-(2-Amino-3-chloro-5-(1-methyl-2,2-dioxido-1,3-dihydrobenzo[c]isothiazol-5-yl)pyridin-4-yl)-2,8-diazaspiro[4.5]decan-1-one], the microsomal CLint at 0.8 μM in data set [1] fell in the range of 100 to 150 µL/min/mg. Further, the IC50 in the data set on Wnt pathway was 0.006 µM.

Take `Cn1ncc2cc(-c3cnc(N)c(C(F)(F)F)c3N3CCC4(CCNC4=O)CC3)ccc21` [Compound 39, 8-(2-Amino-5-(1-methyl-1H-indazol-5-yl)-3-(trifluoromethyl)pyridin-4-yl)-2,8-diazaspiro[4.5]decan-1-one]: in data set [1], the microsomal CLint at 0.8 μM is 50 to 100 µL/min/mg. Further, the midpoint of inhibition in the data set on Wnt pathway, the IC50, lay at 0.035 µM.

`Cn1ncc2cc(-c3cnc(N)c(Cl)c3N3CCC4(CC3)CC(=O)NC4=O)ccc21` [Compound 17, 8-[2-Amino-3-chloro-5-(1-methyl-1H-indazol-5-yl)-pyridin-4-yl]-2,8-diaza-spiro[4.5] decane-1,3-dione]: in data set [1], the microsomal CLint at 0.8 μM is 10 to 50 µL/min/mg. The molecule further registered an IC50 in the data set with Wnt pathway of 0.002 µM.

With `Cn1cc(-c2ccc(-c3cnc(N)c(Cl)c3N3CCC4(CC3)C(=O)Nc3ccccc34)cc2)cn1` [Compound 11, 1′-(2-Amino-3-chloro-5-(4-(1-methyl-1H-pyrazol-4-yl)phenyl)pyridin-4-yl)spiro[indoline-3,4′-piperidin]-2-one], the microsomal CLint at 0.8 μM in data set [1] fell in the range of 10 to 50 µL/min/mg. The same molecule had an IC50 in the data set with Wnt pathway of 0.003 µM.

With `Nc1ccc(-c2ccc(-c3cnc(N)c(Cl)c3N3CCC4(CCNC4=O)CC3)cc2)cn1` [Compound 28, 8-{2-Amino-5-[4-(6-amino-pyridin-3-yl)-phenyl]-3-chloro-pyridin-4-yl}-2,8-diaza-spiro[4.5] decan-1-one], the intrinsic clearance (microsomal CLint) at 0.8 μM in data set [1] is at least 150 µL/min/mg. This molecule also yielded an IC50 in the data set with Wnt pathway of 0.012 µM.

In the case of `CN1C(=O)CCc2cc(-c3cnc(N)c(Cl)c3N3CCC4(CCNC4=O)CC3)ccc21` [Compound 14, 6-[6-Amino-5-chloro-4-(1-oxo-2,8-diaza-spiro[4.5]dec-8-yl)-pyridin-3-yl]-1-methyl-3,4-dihydro-1H-quinolin-2-one], in data set [1], the microsomal CLint at 0.8 μM was in the range of 10 to 50 µL/min/mg. In the data set on Wnt pathway, this molecule had an IC50 of 0.04 µM.

As to `Cn1ccc(-c2ccc(-c3cnc(N)c(Cl)c3N3CCC4(CCNC4=O)CC3)cc2)n1` [Compound 22, 8-(2-Amino-3-chloro-5-(4-(1-methyl-1H-pyrazol-3-yl)phenyl)pyridin-4-yl)-2,8-diazaspiro[4.5]decan-1-one], in data set [1], the microsomal CLint at 0.8 μM is 10 to 50 µL/min/mg. For the same molecule, the IC50 with Wnt pathway stood at 0.038 µM.

As to `Cn1ncc2ccc(-c3cnc(N)c(Cl)c3N3CCC4(CC3)CNC(=O)O4)cc21` [Compound 20, 8-[2-Amino-3-chloro-5-(1-methyl-1H-indazol-6-yl)-pyridin-4-yl]-1-oxa-3,8-diaza-spiro[4.5] decan-2-one], the microsomal CLint at 0.8 μM in data set [1] fell in the range of 10 to 50 µL/min/mg. In the data set on Wnt pathway, it took 0.054 µM to reach half-maximal inhibition (IC50).

As for `Nc1ncc(-c2ccc3c(N)n[nH]c3c2)c(N2CCC3(CC2)CC(=O)NC3=O)c1Cl` [Compound 12, 8-[2-Amino-5-(3-amino-1H-indazol-6-yl)-3-chloro-pyridin-4-yl]-2,8-diaza-spiro[4.5] decane-1,3-dione], the microsomal CLint at 0.8 μM in data set [1] fell in the range of 10 to 50 µL/min/mg. Also, in the data set on Wnt pathway, the IC50 worked out at 0.031 µM.

For `CCN1c2ccc(-c3cnc(N)c(Cl)c3N3CCC4(CCNC4=O)CC3)cc2CS1(=O)=O` [Compound 58, 8-[2-Amino-3-chloro-5-(1-ethyl-2,2-dioxo-2,3-dihydro-1H-2I6-benzo[c]isothiazol-5-yl)-pyridin-4-yl]-2,8-diaza-spiro[4.5] decan-1-one], the microsomal CLint at 0.8 μM in data set [1] was at least 150 µL/min/mg. Moreover, the IC50 in the data set with Wnt pathway came to 0.0076 µM.

Regarding `N#CC1CCN(c2c(-c3ccc(N4CCOCC4)cc3)cnc(N)c2Cl)CC1` [Compound 27, 1-(2-Amino-3-chloro-5-(4-morpholinophenyl)pyridin-4-yl)piperidine-4-carbonitrile], the microsomal CLint at 0.8 μM in data set [1] lay in the range of 100 to 150 µL/min/mg. Further, the IC50 in the data set with Wnt pathway amounted to 0.034 µM.

Regarding `CN1c2ccc(-c3cnc(N)c(F)c3N3CCC4(CC3)CNC(=O)O4)cc2CS1(=O)=O` [Compound 60, 8-[2-Amino-3-fluoro-5-(1-methyl-2,2-dioxo-2,3-dihydro-1H-2l6-benzo[c]isothiazol-5-yl)-pyridin-4-yl]-1-oxa-3,8-diaza-spiro[4.5]decan-2-one], the microsomal CLint at 0.8 μM in data set [1] was below 10 µL/min/mg. Besides, in the data set on Wnt pathway, the half-inhibitory concentration (IC50) is 0.103 µM.

Turning to `Nc1ncc(-c2ccc3c(c2)CCC(=O)N3)c(N2CCC3(CC2)CC(=O)NC3=O)c1Cl` [Compound 13, 8-[2-Amino-3-chloro-5-(2-oxo-1,2,3,4-tetrahydro-quinolin-6-yl)-pyridin-4-yl]-2,8-diaza-spiro[4.5] decane-1,3-dione], in data set [1], the microsomal CLint at 0.8 μM is below 10 µL/min/mg. The molecule also showed an IC50 with Wnt pathway of 0.014 µM.

As to `Nc1ncc(-c2ccc3oc(=O)[nH]c3c2)c(N2CCC3(CCNC3=O)CC2)c1Cl` [Compound 32, 5-[6-Amino-5-chloro-4-(1-oxo-2,8-diaza-spiro[4.5]dec-8-yl)-pyridin-3-yl]-3H-benzooxazol-2-one], the microsomal CLint at 0.8 μM in data set [1] lay within 10 to 50 µL/min/mg. In the data set on Wnt pathway, this molecule returned an IC50 of 0.017 µM.

As for `Cn1cc(-c2ccc(-c3cnc(N)c(Cl)c3N3CCC4(CCNC4=O)CC3)cc2)cn1` [Compound 16, 8-(2-Amino-3-chloro-5-(4-(1-methyl-1H-pyrazol-4-yl)phenyl)pyridin-4-yl)-2,8-diazaspiro[4.5]decan-1-one], in data set [1], the intrinsic clearance (microsomal CLint) at 0.8 μM lay in the range of 100 to 150 µL/min/mg. For the same molecule, in the data set with Wnt pathway, the IC50 was 0.025 µM.

As for `CCn1ncc2cc(-c3cnc(N)c(Cl)c3N3CCC4(CCNC4=O)CC3)ccc21` [Compound 72, 8-[2-Amino-3-chloro-5-(1-ethyl-1H-indazol-5-yl)-pyridin-4-yl]-2,8-diaza-spiro[4.5] decan-1-one], the microsomal CLint at 0.8 μM in data set [1] was in the range of 100 to 150 µL/min/mg. The same molecule showed a half-inhibitory concentration (IC50) in the data set with Wnt pathway of 0.155 µM.

Regarding `CCN1Cc2cc(-c3cnc(N)c(Cl)c3N3CCC4(CCNC4=O)CC3)ccc2S1(=O)=O` [Compound 68, 8-[2-Amino-3-chloro-5-(2-ethyl-1,1-dioxo-2,3-dihydro-1H-1l6-benzo[d]isothiazol-5-yl)-pyridin-4-yl]-2,8-diaza-spiro[4.5]decan-1-one], the microsomal CLint at 0.8 μM in data set [1] was below 10 µL/min/mg. In the data set on Wnt pathway, this molecule registered an IC50 of 0.059 µM.

On to `Cn1ncc2cc(-c3cnc(N)c(C(F)(F)F)c3N3CCC(C(N)=O)CC3)ccc21` [Compound 47, 2′-Amino-5′-(1-methyl-1H-indazol-5-yl)-3′-trifluoromethyl-3,4,5,6-tetrahydro-2H-[1,4′] bipyridinyl-4-carboxylic acid amide], for which the intrinsic metabolic clearance (microsomal CLint) at 0.8 μM in data set [1] lay in the range of 50 to 100 µL/min/mg. Inhibition in the data set on Wnt pathway was half-maximal at 0.11 µM (IC50).

On to `Cn1cc(-c2ccc(-c3cnc(N)c(Cl)c3N3CCC4(CC3)NC(=O)NC4=O)cc2)cn1` [Compound 2, 8-{2-Amino-3-chloro-5-[4-(1-methyl-1H-pyrazol-4-yl)-phenyl]-pyridin-4-yl}-1,3,8-triaza-spiro[4.5] decane-2,4-dione], for which the intrinsic metabolic clearance (microsomal CLint) at 0.8 μM in data set [1] was below 10 µL/min/mg. In the data set on Wnt pathway, this molecule registered an IC50 of 0.031 µM.
